Experimental data taken from the NIST ThermoML archive (doi:10.1021/je900600c).

Assays:
[1] = 101 kPa, Liquid; for electrical conductivity: Frequency=0.0005 MHz, crison conductivimeter
[2] = xn = mol fraction of the nth substance listed; details: 101 kPa, Liquid; for electrical conductivity: Frequency=0.0005 MHz, crison conductivimeter

CCCCn1cc[n+](C)c1.F[B-](F)(F)F [1-butyl-3-methylimidazolium tetrafluoroborate]
[1]
Details	electrical conductivity [S/m]	viscosity [mPa·s]
288.15 K	–	173.5
298.15 K	0.352	99.2
308.15 K	–	61.3
318.15 K	–	40.4

CCn1cc[n+](C)c1.F[B-](F)(F)F [1-ethyl-3-methylimidazolium tetrafluoroborate]
[1]
Details	electrical conductivity [S/m]	viscosity [mPa·s]
288.15 K	–	55.5
298.15 K	1.63	36.9
308.15 K	–	26
318.15 K	–	19.17

CCn1cc[n+](C)c1.F[B-](F)(F)F [1-ethyl-3-methylimidazolium tetrafluoroborate] + O
[2]
Details	electrical conductivity [S/m]	viscosity [mPa·s]
288.15 K, x2 = 0	–	55.5
288.15 K, x2 = 0.0985	–	36.2
288.15 K, x2 = 0.2191	–	23.88
288.15 K, x2 = 0.3053	–	18.26
288.15 K, x2 = 0.3982	–	13.26
288.15 K, x2 = 0.4916	–	10.29
288.15 K, x2 = 0.4933	4	–
288.15 K, x2 = 0.5989	–	7.28
288.15 K, x2 = 0.6991	–	5.43
288.15 K, x2 = 0.8029	–	3.18
288.15 K, x2 = 0.8991	–	2.32
298.15 K, x2 = 0	1.63	36.9
298.15 K, x2 = 0.0985	–	25.2
298.15 K, x2 = 0.2191	–	16.66
298.15 K, x2 = 0.3053	–	13.51
298.15 K, x2 = 0.3665	4.1	–
298.15 K, x2 = 0.3982	–	10.02
298.15 K, x2 = 0.4916	–	7.91
298.15 K, x2 = 0.4933	5.26	–
298.15 K, x2 = 0.5498	6.07	–
298.15 K, x2 = 0.5989	–	5.62
298.15 K, x2 = 0.6599	7.64	–
298.15 K, x2 = 0.6991	–	4.23
298.15 K, x2 = 0.7332	8.15	–
298.15 K, x2 = 0.7856	8.44	–
298.15 K, x2 = 0.8029	–	2.5
298.15 K, x2 = 0.8249	8.52	–
298.15 K, x2 = 0.8555	8.47	–
298.15 K, x2 = 0.8799	8.36	–
298.15 K, x2 = 0.8991	–	1.82
298.15 K, x2 = 0.8999	8.18	–
298.15 K, x2 = 0.9166	7.9	–
298.15 K, x2 = 0.9307	7.43	–
298.15 K, x2 = 0.9428	7.1	–
298.15 K, x2 = 0.9533	6.56	–
298.15 K, x2 = 0.9625	6.13	–
298.15 K, x2 = 0.9706	5.43	–
298.15 K, x2 = 0.9778	4.76	–
298.15 K, x2 = 0.9842	4.03	–
298.15 K, x2 = 0.99	2.95	–
298.15 K, x2 = 0.9952	1.79	–
308.15 K, x2 = 0	–	26
308.15 K, x2 = 0.0985	–	18.45
308.15 K, x2 = 0.2191	–	12.64
308.15 K, x2 = 0.3053	–	10.39
308.15 K, x2 = 0.3982	–	7.85
308.15 K, x2 = 0.4916	–	6.26
308.15 K, x2 = 0.4933	5.9	–
308.15 K, x2 = 0.5989	–	4.49
308.15 K, x2 = 0.6991	–	3.4
308.15 K, x2 = 0.8029	–	2.03
308.15 K, x2 = 0.8991	–	1.477
318.15 K, x2 = 0	–	19.17
318.15 K, x2 = 0.0985	–	14.01
318.15 K, x2 = 0.2191	–	9.9
318.15 K, x2 = 0.3053	–	8.23
318.15 K, x2 = 0.3982	–	6.33
318.15 K, x2 = 0.4916	–	5.09
318.15 K, x2 = 0.4933	6.95	–
318.15 K, x2 = 0.5989	–	3.68
318.15 K, x2 = 0.6991	–	2.81
318.15 K, x2 = 0.8029	–	1.696
318.15 K, x2 = 0.8991	–	1.2

CCCCCCn1cc[n+](C)c1.F[B-](F)(F)F [1-hexyl-3-methylimidazolium tetrafluoroborate]
[1]
Details	electrical conductivity [S/m]	viscosity [mPa·s]
288.15 K	–	357.5
298.15 K	0.126	190.9
308.15 K	–	110.3
318.15 K	–	68.5

CCCCCCn1cc[n+](C)c1.F[B-](F)(F)F [1-hexyl-3-methylimidazolium tetrafluoroborate] + O
[2]
Details	electrical conductivity [S/m]	viscosity [mPa·s]
288.15 K, x2 = 0	–	357.5
288.15 K, x2 = 0.1101	–	200.6
288.15 K, x2 = 0.1679	–	151
288.15 K, x2 = 0.2812	–	100.3
288.15 K, x2 = 0.3581	–	65.4
288.15 K, x2 = 0.4907	0.625	–
288.15 K, x2 = 0.4987	–	38.7
288.15 K, x2 = 0.5075	–	36.4
288.15 K, x2 = 0.573	–	29.4
288.15 K, x2 = 0.72	–	17.55
298.15 K, x2 = 0	0.126	190.9
298.15 K, x2 = 0.1101	–	113.9
298.15 K, x2 = 0.1164	0.202	–
298.15 K, x2 = 0.1679	–	89.1
298.15 K, x2 = 0.2364	0.337	–
298.15 K, x2 = 0.2812	–	61.6
298.15 K, x2 = 0.3232	0.484	–
298.15 K, x2 = 0.3581	–	41.6
298.15 K, x2 = 0.3942	0.627	–
298.15 K, x2 = 0.4548	0.798	–
298.15 K, x2 = 0.4907	0.983	–
298.15 K, x2 = 0.4987	–	25.5
298.15 K, x2 = 0.5075	–	24
298.15 K, x2 = 0.5294	1.06	–
298.15 K, x2 = 0.573	–	19.6
298.15 K, x2 = 0.5896	1.31	–
298.15 K, x2 = 0.652	1.62	–
298.15 K, x2 = 0.7184	1.99	–
298.15 K, x2 = 0.72	–	10.82
308.15 K, x2 = 0	–	110.3
308.15 K, x2 = 0.1101	–	69.4
308.15 K, x2 = 0.1679	–	56.2
308.15 K, x2 = 0.2812	–	40.3
308.15 K, x2 = 0.3581	–	28.1
308.15 K, x2 = 0.4907	1.38	–
308.15 K, x2 = 0.4987	–	17.72
308.15 K, x2 = 0.5075	–	16.76
308.15 K, x2 = 0.573	–	13.83
308.15 K, x2 = 0.72	–	7.76
318.15 K, x2 = 0	–	68.5
318.15 K, x2 = 0.1101	–	45.1
318.15 K, x2 = 0.1679	–	37.5
318.15 K, x2 = 0.2812	–	27.8
318.15 K, x2 = 0.3581	–	19.89
318.15 K, x2 = 0.4907	1.65	–
318.15 K, x2 = 0.4987	–	12.92
318.15 K, x2 = 0.5075	–	12.25
318.15 K, x2 = 0.573	–	10.19
318.15 K, x2 = 0.72	–	5.85

O [water]
[1]
Details	viscosity [mPa·s]
288.15 K	1.137
298.15 K	0.89
308.15 K	0.719
318.15 K	0.597

O [water] + CCn1cc[n+](C)c1.F[B-](F)(F)F
[2], x1 = 1
Details	viscosity [mPa·s]
288.15 K	1.137
298.15 K	0.89
308.15 K	0.719
318.15 K	0.597
